Experimental data reported in ChEMBL document CHEMBL3739384 (Medchemcomm, 2015).

How the values were obtained:
Type in all cases: cell-based, HEK-293T
Histamine H4 receptor = Histamine H4 receptor (Homo sapiens, UniProt Q9H3N8); experiment: Displacement of [3H]-histamine from human histamine H4 receptor expressed in HEK293T cells after 1 to 1.5 hrs by liquid scintillation counting analysis
Histamine H1 receptor = Histamine H1 receptor (Homo sapiens, UniProt P35367); experiment: Displacement of [3H]-mepyramine from human histamine H1 receptor expressed in HEK293T cells after 1 to 1.5 hrs by liquid scintillation counting analysis
[1] = target: Beta-2 adrenergic receptor (Homo sapiens, UniProt P07550); experiment: Displacement of [3H]-dihydroalprenolol from human beta2 adrenergic receptor expressed in HEK293T cells after 1 to 1.5 hrs by liquid scintillation counting analysis
Sequence of Beta-2 adrenergic receptor (P07550 whole entry): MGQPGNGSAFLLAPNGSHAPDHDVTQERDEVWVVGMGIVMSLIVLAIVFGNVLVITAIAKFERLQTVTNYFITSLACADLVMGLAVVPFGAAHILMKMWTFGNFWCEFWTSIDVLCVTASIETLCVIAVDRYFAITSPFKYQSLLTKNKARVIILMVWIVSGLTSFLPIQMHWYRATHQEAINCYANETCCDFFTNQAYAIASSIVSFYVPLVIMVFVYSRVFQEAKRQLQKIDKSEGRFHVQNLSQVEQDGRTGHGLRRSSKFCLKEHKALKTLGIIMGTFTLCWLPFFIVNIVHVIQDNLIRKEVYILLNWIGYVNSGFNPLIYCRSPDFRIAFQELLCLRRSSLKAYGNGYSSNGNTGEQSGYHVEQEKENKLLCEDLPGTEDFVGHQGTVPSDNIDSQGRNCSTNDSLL

Sequence of Histamine H1 receptor (P35367 whole entry): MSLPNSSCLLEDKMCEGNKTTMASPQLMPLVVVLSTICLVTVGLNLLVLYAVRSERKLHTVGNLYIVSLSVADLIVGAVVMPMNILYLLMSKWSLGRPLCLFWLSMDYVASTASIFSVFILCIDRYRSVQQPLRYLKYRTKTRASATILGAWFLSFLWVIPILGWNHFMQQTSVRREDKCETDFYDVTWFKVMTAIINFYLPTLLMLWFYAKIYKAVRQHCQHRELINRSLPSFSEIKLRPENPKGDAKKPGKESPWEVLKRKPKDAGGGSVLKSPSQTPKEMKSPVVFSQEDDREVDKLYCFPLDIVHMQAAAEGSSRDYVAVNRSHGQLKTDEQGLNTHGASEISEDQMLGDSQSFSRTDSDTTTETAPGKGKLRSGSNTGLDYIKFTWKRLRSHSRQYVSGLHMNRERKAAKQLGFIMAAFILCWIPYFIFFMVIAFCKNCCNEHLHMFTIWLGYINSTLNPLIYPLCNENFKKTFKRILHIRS
Sequence of Histamine H4 receptor (Q9H3N8 whole entry): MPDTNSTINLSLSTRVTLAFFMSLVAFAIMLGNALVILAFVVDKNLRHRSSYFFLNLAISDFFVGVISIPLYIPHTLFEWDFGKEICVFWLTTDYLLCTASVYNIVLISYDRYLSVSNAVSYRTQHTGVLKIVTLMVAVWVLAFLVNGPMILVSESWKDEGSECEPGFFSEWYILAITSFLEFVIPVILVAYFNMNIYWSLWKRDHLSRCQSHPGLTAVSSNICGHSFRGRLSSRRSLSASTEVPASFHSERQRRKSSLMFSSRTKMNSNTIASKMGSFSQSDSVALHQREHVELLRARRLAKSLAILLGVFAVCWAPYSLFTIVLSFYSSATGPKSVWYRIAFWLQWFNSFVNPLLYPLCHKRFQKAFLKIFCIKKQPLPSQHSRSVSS

Row | SMILES | Ki (Histamine H4 receptor) [µM] | Ki (Histamine H1 receptor) [µM] | Ki [1] [µM]
1 | Cc1cc(N2CCN(C)CC2)nc(N2CCOCC2)n1 | 6.92 | < 10 | –
2 | CN1CCN(c2ncnc3c2oc2ccccc23)CC1 | 0.145 | – | > 10
3 | COc1ccc2c(c1)[nH]c1c(N3CCN(C)CC3)ncnc12 | 6.31 | – | > 10
4 | Cc1nc(N2CCN(C)CC2)c2oc3ccccc3c2n1 | 0.148 | – | > 10
5 | Cc1cc2nc(SCCN(C)C)[nH]c2cc1C | 6.92 | > 10 | –
6 | COc1ccc2[nH]c3c(N4CCN(C)CC4)ncnc3c2c1 | 5.89 | – | > 10
7 | Cc1nnc2c(N3CCN(C)CC3)nc3ccccc3n12 | 6.46 | < 10 | –
8 | CCc1nc(N2CCN(C)CC2)c2oc3ccccc3c2n1 | 0.269 | – | > 10
9 | CN(C)CCNc1ncnc2c1[nH]c1ccc(Cl)cc12 | 5.89 | – | > 10
